In article PMC10882622, “Cytosolic Delivery of Bioactive Cyclic Peptide Cargo by Spontaneous Membrane Translocating Peptides” (ACS Omega, 2024):
Several values for one entry are separate records, joined by “and”; a condition that tells them apart may be missing. Equal values may be shown once. Numbered stars: 1 amine (or outer) side, 2 acyl side, 3 side chain; on linkers, the order of the positions; unused ones are H or OH. Bridge positions count the residues as written; N and C are the ends. Square brackets hold non-standard residues; d marks the D form. Peptide text beside a SMILES is read from it. I, II: the chains in the order shown. Trp(2-yl) = O=C([C@H](Cc1c([*:3])[nH]c2ccccc12)N[*:1])[*:2]; X1 = O=C1CC([*:1])C(=O)N1CC1CCC(C(=O)[*:2])CC1; Leu(4R-OH,5-OH) = C[C@](O)(CO)C[C@H](N)C(=O)O; cisHyp = O=C(O)[C@@H]1C[C@H](O)CN1

Experiments:
pyrene-labeled actin = biological target: T1, pyrene-labeled actin (Oryctolagus cuniculus, UniProt P68135); experiment: in vitro actin depolymerization assay (pyrene excimer fluorescence, Cytoskeleton kit); format: biochemical; settings: polymerized pyrene-actin, 0–50 μM, rates by linear regression, normalized to buffer-only control, averaged; read-out: EC50 for inhibition of actin depolymerization (initial depolymerization rate vs concentration)
T1 construct: purchased Cytoskeleton, Inc
Description: An actin polymerization biochemistry kit (Cytoskeleton, Inc.) was used to assay the bioactivity of the phalloidin conjugates. All experiments were performed in a 96-well format and read on a fluorescent plate reader (Biotek Synergy II). Actin-pyrene monomers formed filamentous actin by using the supplied polymerization buffer, which caused pyrene excimer fluorescence (excitation 365 nm and emission 407 nm). Serial dilutions of phalloidin or TP2-SMCC-Ph were added to the filamentous actin-pyrene as well as a no peptide control. A supplied depolymerization buffer was then added to samples, and loss of fluorescence was monitored on the plate reader as a function of time. […] Calculated rates are normalized to the buffer-only controls.
The 7-position of natural phalloidin is a 4,5-dihydroxy leucine residue. […] Pyrene excimer fluorescence is measured such that depolymerization will drive a decrease in intensity. Polymerized actin, with added phalloidin or TP2-SMCC-Ph, is triggered to depolymerize at time zero, and the rate of excimer decrease is measured.
Figure 3 Control experiments. […] Pyrene excimer fluorescence was excited at 390 nm and monitored at 460 nm over 1 h. (B) Initial depolymerization rates from experiments such as the one shown in Panel A were measured by linear regression and averaged. […] Right axis: washed human red blood cells were incubated for 1 h, and hemoglobin release was measured.

HeLa cells = experiment: cytotoxicity, cell viability by Alamar Blue; format: cell-based, human; settings: Alamar Blue fluorescence after 72 h
Description: Validated HeLa human […] cancer cells and HT1080 human epithelial fibrosarcoma cells were obtained from ATCC and were used at a low passage number without modification. All cells were maintained in T75 flasks in an incubator at 37 °C, 5% CO2 in complete media: DMEM containing 10% (%v/v) FBS, glucose, sodium pyruvate, L-glutamine, nonessential amino acids, and antibiotics. Serum-free media (SFM) was prepared in the same fashion as complete media but lacked FBS. Cells were maintained daily with two DPBS washes and replacement of complete media. When ≥90% confluent, cells were passaged using trypsin and seeded into another T75 flask and/or 96-well plates.
(§1) Figure 3 Control experiments. (A) Example in vitro actin depolymerization assay. Depolymerization of pyrene-labeled actin from Cytoskeleton, Inc. was initiated at time zero in the presence of 0–50 μM TP2-S-Ph conjugate. Pyrene excimer fluorescence was excited at 390 nm and monitored at 460 nm over 1 h. (B) Initial depolymerization rates from experiments such as the one shown in Panel A were measured by linear regression and averaged. We show depolymerization rates versus concentration for phalloidin and for the D-TP2-S-Ph conjugate. EC50 values are ∼3 μM for phalloidin and ∼6 μM for D-TP2-S-Ph. (C) Cytotoxicity and hemolysis caused by TP2, phalloidin, and the TP2-S-Ph chimera. Left axis: HeLa cells were incubated with the indicated concentration of compound for 4 h, and cell viability was measured by Alamar Blue fluorescence after 72 h. Right axis: washed human red blood cells were incubated for 1 h, and hemoglobin release was measured.
(§2) To further test for indirect cytotoxicity, we incubated HeLa cells with TP2-S-Ph, TP2 alone, and free phalloidin for 72 h, Figure 3C, and measured cell viability using Alamar Blue.

human red blood cells = experiment: hemolysis, hemoglobin release; format: cell-based; settings: washed human red blood cells, incubated 1 h
Description: as §1, §2

HT1080 cells = experiment: wound-healing scratch (cell migration) assay; format: cell-based, human; design: cell migration: dose or concentration left out as unconfirmed
Description: A total of 30,000 HT1080 cells were seeded into each well of a 96-well plate in complete media and incubated for 24 h. Cells were washed with DPBS and incubated in serum-free media (SFM) for the next 48 h. Treatment with TP1/2/3-S-Ph, cytochalasin D, or media control, containing DMSO equal to treatment (% v/v), was done for four h at 37 °C. Cells were washed three times with DPBS and then scratched with 10 μL pipet tips on a multichannel pipettor. Evaluation of area closure was performed by phase contrast microscopic imaging of each well at 4× magnification, hourly, for 24 h with the Biotek Cytation 5 cell imaging reader and the BioSpa 8 automated incubator. Only the linear portion of the time course, up to 8 h, was used for analysis. For each condition studied, the scratch assay was performed in at least 6 biologically independent experiments, and each experiment consisted of 2–3 technical replicates.
ImageJ was used to trace the perimeter of each scratch. The gap area (GA) of each scratch was generated with ImageJ via batch processing with a lower threshold of 0 and an upper threshold of 60. The gap area for treatment groups was averaged and relativized as follows: [drawing 1]
Mean relative GA was plotted over time, and the absolute value of the slope from 1 to 8 h for each treatment was determined. Lastly, slopes were normalized against SFM controls.
We performed 4 h incubation in the presence of peptide chimeras and then washed the cells with PBS three times prior to conducting the scratch-closing measurements. This approach enabled us to assay only for rapid and nonreversible delivery of phalloidin cargo to the cytosol of cells by the peptides. The control compound cytochalasin D needed to be maintained at the noted concentration throughout the entire incubation time because, unlike the peptides, it is readily washed out of cells and has no effect if incubated for 4 h and washed away.
Figure 4 Example scratch assay. For this assay, a total of 30,000 HT1080 cells were seeded into each well of a 96-well cell culture plate in complete media and incubated for 24 h. Cells were washed with DPBS and incubated in serum-free media (SFM) for the next 48 h. Treatment with serum-free media, cytochalasin D, or peptide was done for 4 h at 37 °C. Cells were washed three times with DPBS and then scratched with 10 μL pipet tips on a multichannel pipettor. Cytochalasin D was replaced at the intended concentration, but the peptide was not. Evaluation of wound area was performed by phase contrast microscopic imaging of each well at 4× magnification with a BioTek Cytation 5 cell imaging reader and the BioSpa 8 automated incubator. Here, we show example images from a typical scratch assay taken 0, 1, 3, and 6 h after scratching a channel in the middle of the surface. Red lines show the edge of the wound identified by ImageJ and were used to calculate the total wound area from each image.
Migration rates were normalized to that of the NT/SFM group, which was always the fastest closing group. Each experiment was repeated in at least 6 biologically independent experiments, and each biologically independent experiment was repeated in 2–3 technical replicates.

[1] = 100 nM continuous, HT1080, serum-free media

CC[C@@H](C)[C@@H](NC(=O)[C@@H](CC(C)C)NC(=O)[C@H]1CCCN1)C(=O)N[C@H](Cc1ccc(O)cc1)C(=O)N[C@H](CC(C)C)C(=O)N[C@H](CCCNC(=N)N)C(=O)N[C@H](CC(C)C)C(=O)N[C@H](CC(C)C)C(=O)N[C@H](CCCNC(=N)N)C(=O)NCC(=O)N[C@H](CCC(N)=O)C(=O)N[C@H](Cc1c[nH]c2ccccc12)C(=O)N[C@H](CSC1CC(=O)N(CC2CCC(C(=O)NCCCC[C@@H]3NC(=O)[C@@H]4Cc5c([nH]c6ccccc56)SC[C@H](NC(=O)[C@@H]([C@H](C)O)NC(=O)[C@H](C)NC3=O)C(=O)N3C[C@@H](O)C[C@H]3C(=O)N[C@@H](C)C(=O)N4)CC2)C1=O)C(N)=O (stereo partly drawn) [TP2-S-Ph] (I: H-[dP][dL][dI][dY][dL][dR][dL][dL][dR]G[dQ][dW][dC]-NH2 / II: cyclo([cisHyp]A[Trp(2-yl)]KA[dT]C); linker I:13-II:4 via X1; thioether II:3-II:7)
EC50 (pyrene-labeled actin): < 5 µM and ~6 µM
toxicity to HeLa cells (cell viability) (HeLa cells; 0–25 μM concentration range): Neither the conjugated TP2 nor TP2 alone showed any toxicity
toxicity to HeLa cells (cell viability) (HeLa cells; at 50 μM): the conjugate did not
hemolysis of red blood cells (human red blood cells): no hemolytic activity
size of effect on cell migration compared with cytochalasin D control (HT1080 cells; 25 μM, applied for 4 h then washed off, control 100 nM continuous CD): at least as large as the CD control
effect on migration (mean wound closure rate) compared to no treatment, one-way ANOVA (HT1080 cells; at 25, 12.5, 6.3, and 3.1 μM, 4 h incubation then washed, slope 1–8 h, at least 6 independent experiments): significant effects

C=C1[C@@H](C)[C@H]2[C@H](Cc3ccccc3)NC(=O)[C@]23[C@H](OC(C)=O)/C=C/[C@@](C)(O)C(=O)[C@@H](C)C/C=C/[C@H]3[C@@H]1O [cytochalasin D]
cell migration over the first 6 h (HT1080 cells; [1]): little to no migration
inhibition of cell movement (HT1080 cells; [1]): inhibited cell movement completely
effect on cell migration after wash-out (HT1080 cells; incubated for 4 h and washed away): no effect
cell migration (HT1080 cells; treatment, continuous, HT1080): some migration

C[C@@H]1NC(=O)[C@H](C[C@@](C)(O)CO)NC(=O)[C@@H]2Cc3c([nH]c4ccccc34)SC[C@H](NC(=O)[C@@H]([C@H](C)O)NC1=O)C(=O)N1C[C@@H](O)C[C@H]1C(=O)N[C@@H](C)C(=O)N2 [phalloidin] (cyclo(A[dT]C[cisHyp]A[Trp(2-yl)][Leu(4R-OH,5-OH)]); thioether 3-6 (inferred); ring closure inferred)
EC50 (pyrene-labeled actin): < 5 µM and ~3 µM
cytotoxic effects on HeLa cells (cell viability) (HeLa cells; up to 1 mM): no cytotoxic effects
